Earlier results in patent US9149490B2, “Acne treatment composition and methods for using” (Skinvisible Pharmaceuticals, Inc., priority 2006, dated 2015).

Settings: in vivo

Substance	dermal toxicity
Poly(vinylpyrrolidone/1-eicosene) [PVPE]	no demonstrable dermal toxicity
Poly(vinylpyrrolidone/1-hexadecene) [PVPH]	no demonstrable dermal toxicity
